Source: US6358885B1, “Substituted phenylheterocyclic herbicides” (Mississippi State University, priority 1992, dated 2002)

How the values were obtained:
[1] = test system: chickweed; test: Test C preemergence/postemergence greenhouse plant response rating 0 to 100; assay type: in vivo, Stellaria media; details: POSTEMERGENCE; for Plant response rating, Chickweed: 0 to 100 scale
Description: (§1) The compounds evaluated in this test were formulated in a non-phytoxic solvent and applied to the soil surface before plant seedlings emerged (preemergence application), to water that covered the soil surface (flood application), and to plants that were in the one-to-four leaf stage (postemergence application). A sandy loam soil was used for the preemergence and postemergence tests, while a silt loam soil was used in the flood test. Water depth was approximately 2.5 cm for the flood test and was maintained at this level for the duration of the test. Plant species in the preemergence and postemergence tests consisted of barley (Hordeum vulgare), bedstraw (Galium aparine), blackgrass (Alopecurus myosuroides), chickweed (Stellaria media), corn (Zea mays), cotton (Gossypium hirsutum), crabgrass (Digitaria sanguinalis), downy brome (Bromus tectorum), giant foxtail (Setaria faberii), lambsquarters (Chenopodium album), morningglory (Ipomoea hederacea), pigweed ([…]), rape (Brassica napus), ryegrass (Lolium multiflorum), sorghum (Sorghum bicolor), soybean (Glycine max), speedwell (Veronica persica), sugar beet (Beta vulgaris), velvetleaf (Abutilon theophrasti), wheat (Triticum aestivum), wild buckwheat (Polygonum convolvulus), and wild oat (Avena fatua). All plant species were planted one day before application of the compound for the preemergence portion-of this test. Plantings of these species were adjusted to produce plants of appropriate size for the post-emergence portion of the test. […] All plant species were grown using normal greenhouse practices. Visual evaluations of injury expressed on treated plants, when compared to untreated controls, were recorded approximately fourteen to twenty one days after application of the test compound. […] A dash (-) response means no test result.

[2] = test system: cotton; test: as above; assay type: in vivo, Gossypium hirsutum; details: POSTEMERGENCE; for Plant response rating, Cotton: 0 to 100 scale
Description: as §1

[3] = test system: soybean; test: as above; assay type: in vivo, Glycine max; details: POSTEMERGENCE; for Plant response rating, Soybean: 0 to 100 scale
Description: as §1

[4] = test system: lambsquarters; test: as above; assay type: in vivo, Chenopodium album; details: POSTEMERGENCE; for Plant response rating Lambsquarters: 0 to 100 scale
Description: as §1

[5] = test system: sorghum; test: Test B preemergence/postemergence greenhouse plant response rating 0 to 10; assay type: in vivo, Sorghum bicolor; details: 0 to 10 scale
Method in brief: (§2)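 Planted seeds are treated preemergence with compound dissolved in a non-phytotoxic solvent, while postemergence applications go onto plants of two to eighteen cm. Plants stay in the greenhouse twelve to sixteen days and are then rated visually relative to controls.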

[6] = test system: cheatgrass; test: as above; assay type: in vivo, Bromus secalinus; details: for Plant response rating, Cheatgrass: 0 to 10 scale
Method in brief: as §2

[7] = test system: barley; test: Test C preemergence/postemergence greenhouse plant response rating 0 to 100; assay type: in vivo, Hordeum vulgare; details: POSTEMERGENCE; for Plant response rating Barley Igri: 0 to 100 scale
Description: as §1

[8] = test system: corn; test: Test B preemergence/postemergence greenhouse plant response rating 0 to 10; assay type: in vivo, Zea mays; details: for Plant response rating, Corn: 0 to 10 scale
Method in brief: as §2

[9] = test system: chickweed; test: as above; assay type: in vivo, Stellaria media; details: 0 to 10 scale
Method in brief: as §2

[10] = test system: ryegrass; test: Test C preemergence/postemergence greenhouse plant response rating 0 to 100; assay type: in vivo, Lolium multiflorum; details: POSTEMERGENCE; for Plant response rating Ryegrass: 0 to 100 scale
Description: as §1

[11] = test system: giant foxtail; test: Test B preemergence/postemergence greenhouse plant response rating 0 to 10; assay type: in vivo, Setaria faberii; details: 0 to 10 scale
Method in brief: as §2

[12] = test system: wild oat; test: as above; assay type: in vivo, Avena fatua; details: 0 to 10 scale
Method in brief: as §2

[13] = test system: sugar beet; test: Test C preemergence/postemergence greenhouse plant response rating 0 to 100; assay type: in vivo, Beta vulgaris; details: POSTEMERGENCE; for Plant response rating, Sugar beet: 0 to 100 scale
Description: as §1

[14] = test system: downy brome; test: as above; assay type: in vivo, Bromus tectorum; details: POSTEMERGENCE; for Plant response rating Downy Brome: 0 to 100 scale
Description: as §1

[15] = test system: velvetleaf; test: as above; assay type: in vivo, Abutilon theophrasti; details: POSTEMERGENCE; for Plant response rating, Velvetleaf: 0 to 100 scale
Description: as §1

[16] = test system: duck salad; test: Test C flood test plant response rating 0 to 100; assay type: in vivo, Heteranthera limosa; details: for Plant response rating Duck salad: flood test species listed under POSTEMERGENCE, 0 to 100 scale
Description: as §1

[17] = test system: wild buckwheat; test: Test B preemergence/postemergence greenhouse plant response rating 0 to 10; assay type: in vivo, Polygonum convolvulus; details: 0 to 10 scale
Method in brief: as §2

[18] = test system: wild buckwheat; test: Test C preemergence/postemergence greenhouse plant response rating 0 to 100; assay type: in vivo, Polygonum convolvulus; details: POSTEMERGENCE; for Plant response rating, Wild buckwheat: 0 to 100 scale
Description: as §1

COC(=O)C(C)Oc1cc(-c2nn3c(c2Cl)CCCC3)c(F)cc1Cl (stereo not shown) [Compound 28]
Plant response rating, Chickweed ([1]; 62 g/ha): 80 | Plant response rating, Chickweed ([1]; 250 g/ha): 80 | Plant response rating (0 to 100), Chickweed ([1]; Rate 4 g/ha): 20 | Plant response rating (0 to 100), Chickweed ([1]; Rate 16 g/ha): 50 | Plant response rating, Cotton ([2]; 62 g/ha): 100 | Plant response rating, Cotton ([2]; 250 g/ha): 100 | Plant response rating (0 to 100), Cotton ([2]; Rate 4 g/ha): 100 | Plant response rating (0 to 100), Cotton ([2]; Rate 16 g/ha): 100 | Plant response rating, Soybean ([3]; 62 g/ha): 70 | Plant response rating, Soybean ([3]; 250 g/ha): 80 | Plant response rating (0 to 100), Soybean ([3]; Rate 4 g/ha): 0 | Plant response rating (0 to 100), Soybean ([3]; Rate 16 g/ha): 30 | Plant response rating Lambsquarters ([4]; 62 g/ha): 80 | Plant response rating Lambsquarters ([4]; 250 g/ha): 100 | Plant response rating (0 to 100), Lambsquarters ([4]; Rate 4 g/ha): 50 | Plant response rating (0 to 100), Lambsquarters ([4]; Rate 16 g/ha): 80 | Plant response rating, Sorghum ([5]; POSTEMERGENCE, Rate 50 g/ha): 7 | Plant response rating, Sorghum ([5]; POSTEMERGENCE, Rate 200 g/ha): 9 | Plant response rating, Sorghum ([5]; PREEMERGENCE, Rate 50 g/ha): 0 | Plant response rating, Sorghum ([5]; Rate 200 g/ha, PREEMERGENCE): 0 | Plant response rating (0 to 10 scale), Cheatgrass ([6]; POSTEMERGENCE, Rate 50 g/ha): 6 | Plant response rating, Cheatgrass ([6]; POSTEMERGENCE, Rate 200 g/ha): 9 | Plant response rating, Cheatgrass ([6]; PREEMERGENCE, Rate 50 g/ha): 4 | Plant response rating, Cheatgrass ([6]; Rate 200 g/ha, PREEMERGENCE): 6 | Plant response rating Barley Igri ([7]; 62 g/ha): 40 | Plant response rating Barley Igri ([7]; 250 g/ha): 50 | Plant response rating (0 to 100), Barley Igri ([7]; Rate 4 g/ha): 20 | Plant response rating (0 to 100), Barley Igri ([7]; Rate 16 g/ha): 30 | Plant response rating (0 to 10 scale), Corn ([8]; POSTEMERGENCE, Rate 50 g/ha): 6 | Plant response rating, Corn ([8]; POSTEMERGENCE, Rate 200 g/ha): 9 | Plant response rating, Corn ([8]; PREEMERGENCE, Rate 50 g/ha): 0 | Plant response rating, Corn ([8]; Rate 200 g/ha, PREEMERGENCE): 2 | Plant response rating, Chickweed ([9]; POSTEMERGENCE, Rate 200 g/ha): 9 | Plant response rating, Chickweed ([9]; PREEMERGENCE, Rate 50 g/ha): 1 | Plant response rating, Chickweed ([9]; Rate 200 g/ha, PREEMERGENCE): 7 | Plant response rating Ryegrass ([10]; 62 g/ha): 60 | Plant response rating Ryegrass ([10]; 250 g/ha): 70 | Plant response rating (0 to 100), Ryegrass ([10]; Rate 4 g/ha): 20 | Plant response rating (0 to 100), Ryegrass ([10]; Rate 16 g/ha): 40 | Plant response rating, Giant foxtail ([11]; POSTEMERGENCE, Rate 50 g/ha): 5 | Plant response rating, Giant foxtail ([11]; POSTEMERGENCE, Rate 200 g/ha): 8 | Plant response rating, Giant foxtail ([11]; PREEMERGENCE, Rate 50 g/ha): 0 | Plant response rating, Giant foxtail ([11]; Rate 200 g/ha, PREEMERGENCE): 5 | Plant response rating, Wild oat ([12]; POSTEMERGENCE, Rate 50 g/ha): 5 | Plant response rating, Wild oat ([12]; POSTEMERGENCE, Rate 200 g/ha): 6 | Plant response rating, Wild oat ([12]; Rate 200 g/ha, PREEMERGENCE): 2 | Plant response rating, Sugar beet ([13]; 62 g/ha): 100 | Plant response rating, Sugar beet ([13]; 250 g/ha): 100 | Plant response rating (0 to 100), Sugar beet ([13]; Rate 4 g/ha): 100 | Plant response rating (0 to 100), Sugar beet ([13]; Rate 16 g/ha): 100 | Plant response rating Downy Brome ([14]; 62 g/ha): 60 | Plant response rating Downy Brome ([14]; 250 g/ha): 100 | Plant response rating (0 to 100), Downy Brome ([14]; Rate 4 g/ha): 10 | Plant response rating (0 to 100), Downy Brome ([14]; Rate 16 g/ha): 40 | Plant response rating, Velvetleaf ([15]; 62 g/ha): 100 | Plant response rating, Velvetleaf ([15]; 250 g/ha): 100 | Plant response rating (0 to 100), Velvetleaf ([15]; Rate 4 g/ha): 100 | Plant response rating (0 to 100), Velvetleaf ([15]; Rate 16 g/ha): 100 | Plant response rating (0 to 100), Duck salad ([16]; POSTEMERGENCE section, flood test, Rate 4 g/ha): 0 | Plant response rating (0 to 100), Duck salad ([16]; Rate 16 g/ha, under POSTEMERGENCE head (flood test species)): 0 | Plant response rating Duck salad ([16]; 62 g/ha): 30 | Plant response rating Duck salad ([16]; 250 g/ha): 70 | Plant response rating, Wild buckwheat ([17]; POSTEMERGENCE, Rate 50 g/ha): 9 | Plant response rating, Wild buckwheat ([17]; POSTEMERGENCE, Rate 200 g/ha): 10 | Plant response rating, Wild buckwheat ([17]; PREEMERGENCE, Rate 50 g/ha): 7 | Plant response rating, Wild buckwheat ([17]; Rate 200 g/ha, PREEMERGENCE): 7 | Plant response rating, Wild buckwheat ([18]; 62 g/ha): 70 | Plant response rating, Wild buckwheat ([18]; 250 g/ha): 90 | Plant response rating (0 to 100), Wild buckwheat ([18]; Rate 4 g/ha): 30 | Plant response rating (0 to 100), Wild buckwheat ([18]; Rate 16 g/ha): 60
